These results are taken from patent US11306084B2, “Integrin antagonists” (Saint Louis University, priority 2016, dated 2022).

Broadly, the IC50 is the concentration that inhibits the measured activity by half.

Where a name gives a salt, the structure may show the parent alone.

Holding throughout (type): binding
The target in assay [1] is T1, Recombinant human integrin ανβ1 (Homo sapiens, UniProt P05556+P06756).
T1 construct: purchased R&D Systems 6579-AV
The experiment in a line: Solid Phase Receptor Assay (SPRA) for ανβ1 function. The settings on record: plate-bound human fibronectin; read-out: αvβ1 SPRA IC50.

The target of assay [2] is T2, Recombinant human integrin ανβ3 (Homo sapiens, UniProt P05106+P06756).
T2 construct: purchased R&D Systems 3050-AV
T2 sequence (P06756 31-992 limits assumed): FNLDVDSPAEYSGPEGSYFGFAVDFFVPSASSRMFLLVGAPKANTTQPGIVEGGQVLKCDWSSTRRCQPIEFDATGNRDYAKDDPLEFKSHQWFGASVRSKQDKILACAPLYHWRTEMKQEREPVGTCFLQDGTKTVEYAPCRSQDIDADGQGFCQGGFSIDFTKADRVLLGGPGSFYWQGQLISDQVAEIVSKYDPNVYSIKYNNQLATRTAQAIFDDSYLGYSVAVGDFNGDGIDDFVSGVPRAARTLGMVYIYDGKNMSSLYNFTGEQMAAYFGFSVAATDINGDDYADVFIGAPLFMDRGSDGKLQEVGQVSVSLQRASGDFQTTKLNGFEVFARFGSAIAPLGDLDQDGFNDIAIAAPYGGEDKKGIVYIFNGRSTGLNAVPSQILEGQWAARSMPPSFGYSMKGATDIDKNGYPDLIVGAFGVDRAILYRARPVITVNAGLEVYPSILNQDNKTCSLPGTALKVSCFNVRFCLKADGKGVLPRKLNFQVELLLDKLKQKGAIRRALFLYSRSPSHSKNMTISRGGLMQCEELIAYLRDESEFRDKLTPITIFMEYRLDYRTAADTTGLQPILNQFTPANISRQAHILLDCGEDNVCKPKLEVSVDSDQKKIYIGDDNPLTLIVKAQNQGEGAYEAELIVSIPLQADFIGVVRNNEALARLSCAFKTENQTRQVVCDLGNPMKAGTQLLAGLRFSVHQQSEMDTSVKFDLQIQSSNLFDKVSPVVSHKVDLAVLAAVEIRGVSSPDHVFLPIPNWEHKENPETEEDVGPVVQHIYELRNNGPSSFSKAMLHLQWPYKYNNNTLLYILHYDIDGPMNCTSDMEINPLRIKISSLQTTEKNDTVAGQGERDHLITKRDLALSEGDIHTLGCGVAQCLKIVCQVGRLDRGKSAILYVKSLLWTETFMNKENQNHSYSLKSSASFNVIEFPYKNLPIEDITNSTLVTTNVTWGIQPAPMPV
T2 sequence (P05106 27-718 limits assumed): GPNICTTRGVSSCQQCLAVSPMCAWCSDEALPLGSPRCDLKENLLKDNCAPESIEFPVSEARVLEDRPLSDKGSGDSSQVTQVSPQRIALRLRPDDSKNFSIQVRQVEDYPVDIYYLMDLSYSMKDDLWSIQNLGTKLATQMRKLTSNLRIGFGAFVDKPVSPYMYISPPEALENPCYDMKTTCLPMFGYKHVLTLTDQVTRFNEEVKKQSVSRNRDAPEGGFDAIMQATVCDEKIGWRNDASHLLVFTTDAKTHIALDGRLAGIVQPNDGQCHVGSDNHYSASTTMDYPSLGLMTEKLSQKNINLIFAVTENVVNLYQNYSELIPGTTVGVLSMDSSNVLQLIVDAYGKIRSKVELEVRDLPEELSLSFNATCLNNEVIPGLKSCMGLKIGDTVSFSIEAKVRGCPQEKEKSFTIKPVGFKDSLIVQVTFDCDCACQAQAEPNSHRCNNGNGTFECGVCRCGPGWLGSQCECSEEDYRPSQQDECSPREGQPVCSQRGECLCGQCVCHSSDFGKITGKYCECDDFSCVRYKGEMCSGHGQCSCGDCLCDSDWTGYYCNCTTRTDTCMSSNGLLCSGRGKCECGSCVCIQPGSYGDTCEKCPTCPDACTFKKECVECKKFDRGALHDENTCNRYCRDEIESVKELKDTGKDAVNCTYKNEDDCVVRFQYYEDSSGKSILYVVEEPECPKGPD
Briefly: Solid Phase Receptor Assay (SPRA) for ανβ3 function. The conditions noted are these: plate-bound human vitronectin; read-out: αvβ3 SPRA IC50.

Assay [3] deals with T3, Recombinant human integrin ανβ6 (Homo sapiens, UniProt P06756+P18564).
T3 construct: purchased R&D Systems 3817-AV
T3 sequence (P06756 31-992 limits assumed): as the sequence (P06756 31-992 limits assumed) above
T3 sequence (P18564 22-707 limits assumed): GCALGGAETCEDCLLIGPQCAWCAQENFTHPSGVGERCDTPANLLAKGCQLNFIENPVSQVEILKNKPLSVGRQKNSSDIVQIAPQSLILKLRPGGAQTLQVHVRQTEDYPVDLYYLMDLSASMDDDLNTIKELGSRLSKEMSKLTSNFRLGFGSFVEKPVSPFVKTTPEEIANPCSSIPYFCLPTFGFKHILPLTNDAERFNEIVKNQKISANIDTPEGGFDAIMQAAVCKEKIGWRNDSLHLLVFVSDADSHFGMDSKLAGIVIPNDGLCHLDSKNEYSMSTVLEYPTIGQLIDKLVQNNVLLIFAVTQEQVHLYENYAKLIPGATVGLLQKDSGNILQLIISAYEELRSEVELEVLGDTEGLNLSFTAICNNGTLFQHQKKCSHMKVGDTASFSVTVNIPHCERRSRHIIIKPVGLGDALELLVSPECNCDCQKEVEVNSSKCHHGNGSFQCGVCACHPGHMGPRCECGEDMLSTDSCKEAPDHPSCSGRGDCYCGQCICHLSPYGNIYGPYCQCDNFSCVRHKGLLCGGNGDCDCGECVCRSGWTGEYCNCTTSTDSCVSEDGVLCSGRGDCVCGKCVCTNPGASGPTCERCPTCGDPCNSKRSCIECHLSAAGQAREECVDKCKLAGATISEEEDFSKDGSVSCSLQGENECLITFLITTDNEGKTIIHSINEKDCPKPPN
The experiment in a line: Solid Phase Receptor Assay (SPRA) for ανβ6 function. The settings on record: plate-bound human LAP; read-out: αvβ6 SPRA IC50.

The target of assay [4] is T4, Recombinant human integrin α5β1 (Homo sapiens, UniProt P05556+P08648).
T4 construct: purchased R&D Systems 3230-A5
T4 sequence (P08648 42-995 limits assumed): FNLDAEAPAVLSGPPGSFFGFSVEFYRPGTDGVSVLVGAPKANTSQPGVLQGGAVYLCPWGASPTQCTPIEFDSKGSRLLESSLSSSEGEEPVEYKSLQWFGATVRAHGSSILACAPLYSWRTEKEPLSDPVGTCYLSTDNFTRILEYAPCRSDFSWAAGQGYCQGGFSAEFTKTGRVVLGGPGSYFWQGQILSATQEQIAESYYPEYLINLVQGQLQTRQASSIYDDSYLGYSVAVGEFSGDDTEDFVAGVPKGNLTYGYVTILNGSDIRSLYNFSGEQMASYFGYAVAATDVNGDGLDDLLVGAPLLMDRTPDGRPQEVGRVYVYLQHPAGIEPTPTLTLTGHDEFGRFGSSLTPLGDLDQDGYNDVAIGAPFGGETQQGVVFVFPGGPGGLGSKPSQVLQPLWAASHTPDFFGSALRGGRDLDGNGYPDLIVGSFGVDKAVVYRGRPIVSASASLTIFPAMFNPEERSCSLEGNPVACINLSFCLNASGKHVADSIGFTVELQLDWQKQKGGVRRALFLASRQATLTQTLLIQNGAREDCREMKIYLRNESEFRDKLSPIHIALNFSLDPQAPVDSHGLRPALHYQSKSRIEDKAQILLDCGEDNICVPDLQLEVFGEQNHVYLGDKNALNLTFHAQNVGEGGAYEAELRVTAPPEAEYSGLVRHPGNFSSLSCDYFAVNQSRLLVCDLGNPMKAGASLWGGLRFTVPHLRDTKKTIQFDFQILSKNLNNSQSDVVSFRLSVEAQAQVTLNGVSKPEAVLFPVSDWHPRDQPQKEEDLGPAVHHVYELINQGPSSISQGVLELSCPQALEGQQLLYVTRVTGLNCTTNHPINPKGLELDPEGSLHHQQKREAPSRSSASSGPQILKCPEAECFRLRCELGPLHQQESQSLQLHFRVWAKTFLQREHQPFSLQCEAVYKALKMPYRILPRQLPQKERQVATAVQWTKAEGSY
T4 sequence (P05556 21-728 limits assumed): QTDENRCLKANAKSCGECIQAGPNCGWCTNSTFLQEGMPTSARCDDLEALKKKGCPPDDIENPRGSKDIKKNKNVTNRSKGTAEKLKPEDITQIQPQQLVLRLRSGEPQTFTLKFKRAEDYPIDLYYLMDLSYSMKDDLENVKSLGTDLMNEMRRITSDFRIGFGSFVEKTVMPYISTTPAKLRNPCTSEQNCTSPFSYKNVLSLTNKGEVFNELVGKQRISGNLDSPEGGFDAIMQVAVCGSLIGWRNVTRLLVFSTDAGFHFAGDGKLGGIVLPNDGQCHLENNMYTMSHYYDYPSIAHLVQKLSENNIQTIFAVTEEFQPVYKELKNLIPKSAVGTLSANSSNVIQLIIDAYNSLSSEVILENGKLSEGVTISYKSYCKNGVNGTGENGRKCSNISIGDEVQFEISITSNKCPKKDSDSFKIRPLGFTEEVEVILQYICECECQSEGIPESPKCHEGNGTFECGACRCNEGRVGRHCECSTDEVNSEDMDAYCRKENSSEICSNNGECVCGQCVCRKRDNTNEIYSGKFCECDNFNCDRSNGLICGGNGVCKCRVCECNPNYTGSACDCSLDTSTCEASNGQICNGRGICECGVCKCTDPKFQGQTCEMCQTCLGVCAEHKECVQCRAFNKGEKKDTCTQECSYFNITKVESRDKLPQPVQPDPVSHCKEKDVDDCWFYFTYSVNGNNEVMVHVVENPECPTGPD
Briefly: Solid Phase Receptor Assay (SPRA) for α5β1 function. The conditions noted are these: plate-bound human fibronectin.

T1 sequence (P06756 31-992 limits assumed): as the sequence (P06756 31-992 limits assumed) above
T1 sequence (P05556 21-728 limits assumed): as the sequence (P05556 21-728 limits assumed) above

As to `Cc1ccc(C(C)(C)C)cc1C(CC(=O)O)Cc1cc(OCCc2ccc3c(n2)NCCC3)n(C)n1` (centres unmarked) [Example 44, 3-(5-tert-butyl-2-methyl-phenyl)-4-[1-methyl-5-[2-(5,6,7,8-tetrahydro-1,8-naphthyridin-2-yl)ethoxy]pyrazol-3-yl]butanoic Acid Trifluoroacetate], the IC50 in assay [1] is 14 nM; in assay [2] it was 270 nM; in assay [3], 7100 nM; in assay [4] it was 230 nM.
In the same order, the values of `COc1ccc(C#N)cc1C(CC(=O)O)Cc1cc(OCCc2ccc3c(n2)NCCC3)n(C)n1` (centres unmarked) [Example 46, 3-(5-cyano-2-methoxyphenyl)-4-(1-methyl-5-(2-(5,6,7,8-tetrahydro-1,8-naphthyridin-2-yl)ethoxy)-1H-pyrazol-3-yl)butanoic Acid Trifluoroacetate] are 8.1 nM, 9.9 nM, 30 nM and 51 nM.
For `COc1ccc(C(N)=O)cc1C(CC(=O)O)Cc1cc(OCCc2ccc3c(n2)NCCC3)n(C)n1` (centres unmarked) [Example 47, 3-(5-carbamoyl-2-methoxyphenyl)-4-(1-methyl-5-(2-(5,6,7,8-tetrahydro-1,8-naphthyridin-2-yl)ethoxy)-1H-pyrazol-3-yl)butanoic Acid trifluoroacetate] the same measures were 4.9 nM, 4.9 nM, 77 nM and 13 nM.
For `COc1ccc(C(=O)O)cc1C(CC(=O)O)Cc1cc(OCCc2ccc3c(n2)NCCC3)n(C)n1` (centres unmarked) [Example 48, 3-(1-carboxy-3-(1-methyl-5-(2-(5,6,7,8-tetrahydro-1,8-naphthyridin-2-yl)ethoxy)-1H-pyrazol-3-yl)propan-2-yl)-4-methoxybenzoic Acid Trifluoroacetate] the same measures were 19 nM, 5 nM, 680 nM and 230 nM.
Consider `Cn1nc(CC(CC(=O)O)c2cccc(C(C)(C)C)c2)cc1OCCc1ccc2c(n1)NCCC2` (centres unmarked) [Example 49, 3-(3-tert-butylphenyl)-4-[1-methyl-5-[2-(5,6,7,8-tetrahydro-1,8-naphthyridin-2-yl)ethoxy]pyrazol-3-yl]butanoic Acid Trifluoroacetate], for which the IC50 in assay [1] stood at 4.4 nM; in assay [2] it was 7 nM; in assay [3], 94 nM; in assay [4], 12 nM.
